For experiment [1], the system named is Aβ 40 in conditioned medium of cells stably expressing Amyloid Precursor Protein (APP). The experiment can be described thus: In vitro BACE cell-based assay (Aβ 40 sandwich ELISA). As to conditions: Homo sapiens, HEK293. An outline of the steps: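 Aβ40 in conditioned medium measured by pAb40/biotin-6E10 sandwich ELISA with time-resolved europium fluorescence, after 24 h exposure of stable APP cells to compounds (10-point series starting 100 μM or 10 μM; 0.1% DMSO). IC50 fitted from percent of control against concentration.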
(In an ELISA, binding on a coated surface is turned into a signal by an enzyme label.)

Experiment [2] concerns Abeta 40. The experiment can be described thus: In vivo inhibition of beta-secretase: Abeta 40 reduction in CSF and brain of the rat. As to conditions: 10 mpk (unless otherwise noted), after 4 hrs. From the text:
In Vivo Inhibition of Beta-Secretase
Several animal models, including mouse, rat, dog, and monkey, may be used to screen for inhibition of beta-secretase activity in vivo following administration of a test compound sample. Animals used in this invention can be wild type, transgenic, or gene knockout animals. For example, the Tg2576 mouse model, prepared and conducted as described in Hsiao et al., 1996, Science 274, 99-102, and other non-transgenic or gene knockout animals are useful to analyze in vivo inhibition of Amyloid beta peptide (Abeta) production in the presence of inhibitory test compounds. Generally, 2 to 18 month old Tg2576 mice, gene knockout mice or non-transgenic animals are administered test compounds formulated in vehicles, such as cyclodextran, phosphate buffers, hydroxypropyl methylcellulose or other suitable vehicles. One to twenty-four hours following the administration of compound, animals are sacrificed, and brains as well as cerebrospinal fluid (CSF) and plasma are removed for analysis of A-beta levels and drug or test compound concentrations (Dovey et al., 2001, Journal of Neurochemistry, 76, 173-181) Beginning at time 0, animals are administered by oral gavage, or other means of delivery such as intravenous injection, an inhibitory test compound of up to 100 mg/kg in a standard, conventional formulation, such as 2% hydroxypropyl methylcellulose, 1% Tween80. A separate group of animals receive 2% hydroxypropyl methylcellulose, 1% Tween80 alone, containing no test compound, and serve as a vehicle-control group. At the end of the test period, animals are sacrificed and brain tissues, plasma or cerebrospinal fluid are collected. Brains are either homogenized in 10 volumes (w/v) of 0.2% diethylamine (DEA) in 50 mM NaCl (Best et al., 2005, Journal of Pharmacology and Experimental Therapeutics, 313, 902-908), or in 10 volumes of 0.5% TritonX-100 in Tris-buffered saline (pH at about 7.6). Homogenates are centrifuged at 355,000 g, 4° C. for 30 minutes. CSF or brain supernatants are then analyzed for the presence of A-beta peptide by specific sandwich ELISA assays based on ECL (Electrochemiluminescence) technology. For example, rat Abeta40 is measured using biotinylated-4G8 (Signet) as a capture antibody and Fab40 (an in-house antibody specific to the C-terminal of Abeta40) as a detection antibody. For example, 4 hours after administration of 30 mg/kg oral dose of the test compound in 2% hydroxypropyl methylcellulose, 1% Tween80 (pH2.2) to 200 g male Sprague Dawley rats, amyloid beta peptide levels are measured for reduction by X % and Y % in cerebrospinal fluid and brain, respectively, when compared to the levels measured in the vehicle-treated or control […].
Actual vehicles used: Oral: 2% HPMC, 1% Tween80, pH 2.2
• IV: 5% EtOH, 45% Propylene Glycol in 5% Dextrose
The compounds of the invention may be shown to reduce the formation and/or deposition of amyloid beta peptide in the cerebrospinal fluid (CSF) as well as in the brain of a mouse or rat at either 3 mpk, 10 mpk or 30 mpk (mpk=mg compound per kg weight of the animal) dosing concentrations after 4 hrs.

Experiment [3] has as its target Beta Secretase enzyme (BACE) (Homo sapiens, UniProt P56817). Kind of experiment: In vitro enzymatic BACE FRET assay. The experiment is classed as biochemical. Particulars: read-out: BACE1 FRET assay IC50. In outline:
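Cleavage of a quenched 50 nM FRET peptide substrate, read as fluorescence (excitation 488 nm, […]) after 1 h and Tris quench to neutrality. Buffer: 0.05 M acetate pH 4.2 with 10% DMSO and 100 uM genapol. Inhibitor dilutions were pre-incubated 1 h with 0.2 nM enzyme.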

In experiment [4] the target is Cathepsin D (Cat D) (Homo sapiens, UniProt P07339). The experiment can be described thus: In vitro enzymatic Cathepsin D (Cat D) FRET assay. The experiment is classed as biochemical. In outline:
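FRET peptide substrate (20 nM) is cleaved by CHO-derived recombinant enzyme (9 nM) for 1 h after a 1 h inhibitor pre-incubation, at pH 3.5 in citrate buffer with 5 mM CHAPS and 10% DMSO. Tris addition ends the reaction; fluorescence measured at 500 nm excitation, 580 nm emission.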

Setting [5] is: Abeta 40 in CSF of the rat, read-out: % reduction of rat CSF levels at 10 pmk.
Where [6] appears, read: Abeta 40 in brain of the rat, read-out: % reduction of rat brain levels at 10 mpk.
Setting [7] is: text summary referring to data in Table 2.
Setting [8] is: average IC50, HEK cell assay, Aβ 40 readout.
The mark [9] stands for this setting: average IC50, in vitro enzymatic BACE FRET assay.
Where [10] appears, read: Cathepsin D FRET assay, read-out: CatD IC50.

SMILES strings stand for the structures. Read-outs that look alike come from different tables or passages of the source. Where only a bound is given, the exact number is not on record here.

Chain of Beta Secretase enzyme (BACE) (P56817 46-501): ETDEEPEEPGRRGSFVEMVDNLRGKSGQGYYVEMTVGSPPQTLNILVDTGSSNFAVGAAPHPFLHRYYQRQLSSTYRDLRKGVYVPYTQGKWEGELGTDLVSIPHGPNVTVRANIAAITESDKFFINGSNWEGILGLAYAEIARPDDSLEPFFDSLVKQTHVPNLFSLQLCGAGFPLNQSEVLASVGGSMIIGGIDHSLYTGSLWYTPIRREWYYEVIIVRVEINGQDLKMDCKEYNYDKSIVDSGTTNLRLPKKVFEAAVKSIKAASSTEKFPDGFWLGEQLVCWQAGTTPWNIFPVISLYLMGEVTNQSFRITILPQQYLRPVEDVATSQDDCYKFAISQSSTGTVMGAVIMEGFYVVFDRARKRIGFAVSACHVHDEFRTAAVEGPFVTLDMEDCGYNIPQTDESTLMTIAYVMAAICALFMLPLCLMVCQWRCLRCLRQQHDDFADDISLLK
Chain of Cathepsin D (Cat D) (P07339 65-412, species assumed): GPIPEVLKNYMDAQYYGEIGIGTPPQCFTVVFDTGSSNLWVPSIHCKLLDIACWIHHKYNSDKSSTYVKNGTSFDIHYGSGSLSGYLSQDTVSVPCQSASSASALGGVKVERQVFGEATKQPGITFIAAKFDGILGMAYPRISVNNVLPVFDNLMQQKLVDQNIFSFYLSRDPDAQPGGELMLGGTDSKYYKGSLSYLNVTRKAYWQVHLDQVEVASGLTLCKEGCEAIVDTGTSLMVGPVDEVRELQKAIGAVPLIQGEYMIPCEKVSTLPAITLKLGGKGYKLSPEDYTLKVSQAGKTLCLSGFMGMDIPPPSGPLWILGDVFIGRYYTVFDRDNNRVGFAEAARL

The term IC50 denotes the concentration needed to halve the response being measured. Take `Cc1cc(C(F)(F)F)cnc1C(=O)Nc1ccc2c(c1)[C@@]1(C)N=C(N)C(C)(C)S(=O)(=O)[C@@H]1C[C@H](C)O2` [Example 54, N-((4aR,6S,11bR)-2-amino-3,3,6,11b-tetramethyl-4,4-dioxido-4a,5,6,11b-tetrahydro-3H-[1]benzoxepino[4,5-b][1,4]thiazin-10-yl)-3-methyl-5-(trifluoromethyl)-2-pyridinecarboxamide]: the IC50 was 0.001 µM in experiment [1] (HEK cell, average IC50); 0.006 µM in experiment [3] (average IC50); 1620 µM in experiment [4] (read-out: CatD IC50); > 1200 µM in experiment [4] (setting [7]). Further, the inhibition in vivo at 10 mg/kg stood at 76% in experiment [2] (setting [5]) and 63% in experiment [2] (setting [6]).
Regarding `COc1cnc(C(=O)Nc2ccc3c(c2)[C@@]2(C)N=C(N)C(C)(C)S(=O)(=O)[C@@H]2C[C@H](C)O3)cn1` [Example 55, N-((4aR,6S,11bR)-2-amino-3,3,6,11b-tetramethyl-4,4-dioxido-4a,5,6,11b-tetrahydro-3H-[1]benzoxepino[4,5-b][1,4]thiazin-10-yl)-5-methoxy-2-pyrazinecarboxamide], the IC50 stood at 0.004 µM in experiment [1] (HEK cell, average IC50); 0.009 µM in experiment [3] (average IC50); 650 µM in experiment [4] (read-out: CatD IC50). The inhibition in vivo at 10 mg/kg in experiment [2] (setting [5]) worked out at 74%; in experiment [2] (setting [6]), 70%.
The corresponding values for `C[C@H]1C[C@@H]2[C@](C)(N=C(N)C(C)(C)S2(=O)=O)c2cc(Nc3nccc4cc(C#N)cnc34)ccc2O1` [Example 56, 8-(((4aR,6S,11bR)-2-amino-3,3,6,11b-tetramethyl-4,4-dioxido-4a,5,6,11b-tetrahydro-3H-[1]benzoxepino[4,5-b][1,4]thiazin-10-yl)amino)-1,7-naphthyridine-3-carbonitrile] are 0.001 µM, 0.002 µM, 544 µM, 70% and 61%.
For `C[C@H]1C[C@@H]2[C@](C)(N=C(N)C(C)(C)S2(=O)=O)c2cc(NC(=O)c3ccc(C(F)(F)F)cn3)ccc2O1` [Example 84, N-((4aR,6S,11bR)-2-amino-3,3,6,11b-tetramethyl-4,4-dioxido-4a,5,6,11b-tetrahydro-3H-[1]benzoxepino[4,5-b][1,4]thiazin-10-yl)-5-(trifluoromethyl)-2-pyridinecarboxamide], the IC50 is 0.004 µM in experiment [1] (setting [8]), 0.012 µM in experiment [3] (setting [9]), 2760 µM in experiment [4] (setting [10]) and > 1200 µM in experiment [4] (setting [7]). The results for the inhibition in vivo at 10 mg/kg in experiment [2] (setting [5]) and in experiment [2] (setting [6]) were 70% and 68%, respectively.
On to `C[C@H]1C[C@@H]2[C@](C)(N=C(N)C(C)(C)S2(=O)=O)c2cc(NC(=O)c3ccc(Cl)cn3)ccc2O1` [Example 85, N-((4aR,6S,11bR)-2-amino-3,3,6,11b-tetramethyl-4,4-dioxido-4a,5,6,11b-tetrahydro-3H-[1]benzoxepino[4,5-b][1,4]thiazin-10-yl)-5-chloro-2-pyridinecarboxamide], for which the IC50 was found to be 0.003 µM in experiment [1] (setting [8]), 0.004 µM in experiment [3] (setting [9]) and 607 µM in experiment [4] (setting [10]). For the same molecule, the inhibition in vivo at 10 mg/kg in experiment [2] (setting [5]) stood at 79%; in experiment [2] (setting [6]), 78%.
Regarding `C[C@H]1C[C@@H]2[C@](C)(N=C(N)C(C)(C)S2(=O)=O)c2cc(NC(=O)c3ccc(C#N)cn3)ccc2O1` [Example 86, N-((4aR,6S,11bR)-2-amino-3,3,6,11b-tetramethyl-4,4-dioxido-4a,5,6,11b-tetrahydro-3H-[1]benzoxepino[4,5-b][1,4]thiazin-10-yl)-5-cyano-2-pyridinecarboxamide], the IC50 in experiment [1] (setting [8]) is 0.002 µM; in experiment [3] (setting [9]), 0.003 µM; in experiment [4] (setting [10]) it was 1140 µM; in experiment [4] (setting [7]), > 1200 µM. The inhibition in vivo at 10 mg/kg in experiment [2] (setting [5]) and in experiment [2] (setting [6]) was 79% in each case.
Consider `Cc1cc(C(F)(F)F)cnc1C(=O)Nc1ccc2c(c1)[C@@]1(CF)N=C(N)C(C)(C)S(=O)(=O)[C@@H]1C[C@H](C)O2` [Example 104, N-((4aR,6S,11bS)-2-amino-11b-(fluoromethyl)-3,3,6-trimethyl-4,4-dioxido-4a,5,6,11b-tetrahydro-3H-[1]benzoxepino[4,5-b][1,4]thiazin-10-yl)-3-methyl-5-(trifluoromethyl)-2-pyridinecarboxamide], for which the IC50 is 0.037 µM in experiment [1] (setting [8]), 0.014 µM in experiment [3] (setting [9]) and > 400 µM in experiment [4] (setting [10]). Besides, the inhibition in vivo at 10 mg/kg in experiment [2] (setting [5]) was found to be 36%; in experiment [2] (setting [6]) it was 11%.
On the same counts, the results for `CC1(C)C[C@@H]2[C@](C)(N=C(N)C(C)(C)S2(=O)=O)c2cc(Nc3ncnc4cc(C(F)(F)F)cnc34)ccc2O1` [Example 106, (4aR,11bR)-3,3,6,6,11b-pentamethyl-N^~10^~-(7-(trifluoromethyl)pyrido[3,2-d]pyrimidin-4-yl)-4a,5,6,11b-tetrahydro-3H-[1]benzoxepino[4,5-b][1,4]thiazine-2,10-diamine 4,4-dioxide] are 0.009 µM, 0.017 µM, 505 µM, 36% and 36%.
Consider `CC1(C)C[C@@H]2[C@](C)(N=C(N)C(C)(C)S2(=O)=O)c2cc(NC(=O)c3ncc(C(F)(F)F)cc3Cl)ccc2O1` [Example 127, N-((4aR,11bR)-2-amino-3,3,6,6,11b-pentamethyl-4,4-dioxido-4a,5,6,11b-tetrahydro-3H-[1]benzoxepino[4,5-b][1,4]thiazin-10-yl)-3-chloro-5-(trifluoromethyl)-2-pyridinecarboxamide], for which the IC50 in experiment [1] (setting [8]) worked out at 0.007 µM; in experiment [3] (setting [9]) it was 0.019 µM; in experiment [4] (setting [10]), 1020 µM. Besides, the inhibition in vivo at 10 mg/kg in experiment [2] (setting [5]) turned out to be 37%; in experiment [2] (setting [6]) it was 15%.
The corresponding values for `C[C@H]1C[C@@H]2[C@](C)(N=C(N)C(C)(C)S2(=O)=O)c2cc(NC(=O)c3ncc(Cl)cc3Cl)ccc2O1` [Example 129, N-((4aR,6S,11bR)-2-amino-3,3,6,11b-tetramethyl-4,4-dioxido-4a,5,6,11b-tetrahydro-3H-[1]benzoxepino[4,5-b][1,4]thiazin-10-yl)-3,5-dichloro-2-pyridinecarboxamide] are 0.002 µM, 0.003 µM, 567 µM, 21% and 18%.
Regarding `C[C@H]1C[C@@H]2[C@](C)(N=C(N)C(C)(C)S2(=O)=O)c2cc(Nc3ncnc4cc(C(F)(F)F)cnc34)ccc2O1` [Example 133, (4aR,6S,11bR)-3,3,6,11b-tetramethyl-N^~10^~-(7-(trifluoromethyl)pyrido[3,2-d]pyrimidin-4-yl)-4a,5,6,11b-tetrahydro-3H-[1]benzoxepino[4,5-b][1,4]thiazine-2,10-diamine 4,4-dioxide], the values for the IC50 in experiment [1] (setting [8]), in experiment [3] (setting [9]) and in experiment [4] (setting [10]) were 0.005 µM, 0.01 µM and 427 µM, respectively. Further, the inhibition in vivo at 10 mg/kg is 63% in experiment [2] (setting [5]) and 51% in experiment [2] (setting [6]).

Values taken from patent US9309263B2, “Fused multi-cyclic sulfone compounds as inhibitors of beta-secretase and methods of use thereof” (AMGEN INC., priority 2013, dated 2016).
